# Laboratory results from patent publication US20030092083A1, “Cage antigen” (priority 2001, published 2003).
# “Also recorded” adds a separate entry of the source.
# Assays:
# [1] = test system: CAGE expression in PANC-1 and ACHN cancer cell lines; assay: RT-PCR of CAGE expression after treatment of cancer cell lines that do not express CAGE; type: cell-based; conditions: various concentrations for 4 days or 2 μM for various time periods
# Source text: Many of the known C/T antigen genes are methylated in their promoter regions. […] It is understood that it would be within one of ordinary skill in the art to determine the methylation status of CAGE gene by cloning the promoter sequence of CAGE using any available method such as, but not limited to, genomic inverse PCR.
# Next, we investigated whether CAGE gene was methylated. […] For RT-PCR, 5′-[…]-3′ (sense, SEQ ID NO: 11) and 5′-[…]-3′ (antisense, SEQ ID NO: 7) were used. While the mechanism of transcriptional silencing of CAGE in some cancer cell lines may not be clear, it appears that testis-specific expression of CAGE is related at least in part to its demethylation level. In addition, the role of transcription factors in the expression of CAGE gene cannot be ruled out. The absence of transcription factors in other somatic tissues may be responsible for the absence of CAGE expression in these tissues.
# CD8+ T cells = assay: IFN-γ ELISPOT assay for measuring CD8+ T cell stimulation; type: cell-based, human; conditions: 10 μg/ml peptide; CD8+ T cells from PBL of healthy HLA-A2 donors as effector, T2 cells as target, 20 hours
# Description: With these peptides, we stimulated CD8+ T cells isolated from PBL of healthy donors. The activated CD8+ T cells were incubated with target cells ([…]). The effect of CD8+ T cells on target cells was measured by ELISPOT assay, which detects the amount of IFN-γ released due to activation of CD8+ T cells.
# For isolation of PBL, Ficoll-Paque® PLUS (Amersham Pharmacia Biotech) was used. Isolation of PBLs was carried out according to the instruction manual provided by the manufacturer (Amersham Pharmacia Biotech). Briefly, 30 ml of whole blood was mixed with 20 ml of Ficoll-Paque® and centrifuged at 800 g for 20 min. The pellet was transferred to a new tube. 20 ml of PBS buffer was added to the pellet, and centrifuged at 800 g for 10 min. After centrifugation, 10 ml of PBS buffer was added to the pellet. 5 ml of Ficoll-Paque® was added and the contents centrifuged at 800 g for 20 min. 10 ml PBS was added to the pellet for washing, and the contents centrifuged at 800 g for 10 min. Isolated PBLs from healthy donors (HLA-A2 type) were dissolved in RPMI 1640 containing 10% human serum and antibiotics.
# For isolation of CD8+ T cells from PBL, CD8 negative isolation kit (DYNAL) was used and isolation was carried out according to the instruction manual provided by the manufacturer. […]
Compound,induction of CAGE expression (RT-PCR) [1],"induction of CD8+ T cells (IFN-γ release, ELISPOT) (CD8+ T cells)"
Nc1ncn([C@H]2C[C@H](O)[C@@H](CO)O2)c(=O)n1 [5-aza-2′-deoxycytidine],induced CAGE expression in both dose and time-dependent manner; also recorded: induced expression of CAGE in dosage and time-dependent manner,
"KMAGELIKI [peptide of CAGE protein, start position 576]",,showed induction of CD8+ T cells
"YLMPGFIHL [peptide of CAGE protein, start position 276]",,showed induction of CD8+ T cells
